Measurements as given in PubChem BioAssay (NCI).
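In this assay, cells in 96-well plates receive the compound at five concentrations for 48 hours. Endpoints are linearly interpolated between the surrounding concentrations. GI50 = concentration required for 50% inhibition of growth. At the TGI there is no net growth.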

Assays:
Assay in all cases: DTP human tumour cell line panel, 48 h; in the data active means GI50 below about 0.43 µM; inactive means the rest
M14 melanoma = test system: M14 melanoma
MCF7 breast = test system: MCF7 breast
HCC-2998 colon = test system: HCC-2998 colon
NCI-H23 lung = test system: NCI-H23 lung
NCI/ADR-RES ovarian = test system: NCI/ADR-RES ovarian
UO-31 renal = test system: UO-31 renal
SF-295 CNS = test system: SF-295 CNS
MOLT-4 leukemia = test system: MOLT-4 leukemia
MDA-MB-435 = test system: MDA-MB-435
DU-145 prostate = test system: DU-145 prostate
UACC-62 melanoma = test system: UACC-62 melanoma
HOP-62 NSCLC = test system: HOP-62 NSCLC
OVCAR-8 ovarian = test system: OVCAR-8 ovarian
MDA-MB-231 breast = test system: MDA-MB-231 breast
CCRF-CEM leukemia = test system: CCRF-CEM leukemia
PC-3 prostate = test system: PC-3 prostate
BT-549 breast = test system: BT-549 breast
IGROV1 ovarian = test system: IGROV1 ovarian
HCT-116 colon = test system: HCT-116 colon
CAKI-1 renal = test system: CAKI-1 renal
SW-620 colon = test system: SW-620 colon
KM12 colon = test system: KM12 colon
NCI-H460 lung = test system: NCI-H460 lung
UACC-257 melanoma = test system: UACC-257 melanoma
HOP-92 NSCLC = test system: HOP-92 NSCLC
SNB-75 CNS = test system: SNB-75 CNS
COLO 205 colon = test system: COLO 205 colon
A549 NSCLC = test system: A549 NSCLC
NCI-H522 lung = test system: NCI-H522 lung
HL-60(TB) leukemia = test system: HL-60(TB) leukemia
U251 CNS = test system: U251 CNS
SF-268 CNS = test system: SF-268 CNS
MALME-3M melanoma = test system: MALME-3M melanoma
T-47D breast = test system: T-47D breast
SF-539 CNS = test system: SF-539 CNS
OVCAR-4 ovarian = test system: OVCAR-4 ovarian
786-0 renal = test system: 786-0 renal
SNB-19 CNS = test system: SNB-19 CNS
SK-OV-3 ovarian = test system: SK-OV-3 ovarian
RPMI-8226 leukemia = test system: RPMI-8226 leukemia
OVCAR-3 ovarian = test system: OVCAR-3 ovarian
SK-MEL-2 melanoma = test system: SK-MEL-2 melanoma
SK-MEL-28 melanoma = test system: SK-MEL-28 melanoma
OVCAR-5 ovarian = test system: OVCAR-5 ovarian
SK-MEL-5 melanoma = test system: SK-MEL-5 melanoma
HT29 colon = test system: HT29 colon
RXF 393 renal = test system: RXF 393 renal
LOX IMVI melanoma = test system: LOX IMVI melanoma
SR leukemia = test system: SR leukemia
HS 578T breast = test system: HS 578T breast
ACHN renal = test system: ACHN renal
K-562 leukemia = test system: K-562 leukemia
SN12C renal = test system: SN12C renal
HCT-15 colon = test system: HCT-15 colon
EKVX NSCLC = test system: EKVX NSCLC
NCI-H226 lung = test system: NCI-H226 lung
TK-10 renal = test system: TK-10 renal

CC(C)=CCc1c(O)c(CC=C(C)C)c2c(c1O)C(=O)C1=C[C@@H]3C[C@H]4C(C)(C)O[C@@](C/C=C(\C)C(=O)O)(C3=O)[C@@]14O2
40.1 µM: TGI (HCC-2998 colon)
76.5 µM: TGI (CCRF-CEM leukemia)
98.1 µM: TGI (OVCAR-5 ovarian)
68 µM: TGI (DU-145 prostate)
42.2 µM: TGI (RXF 393 renal)
inactive: GI50 (M14 melanoma) 19.9 µM | GI50 (MCF7 breast) 19 µM | GI50 (HCC-2998 colon) 19.6 µM | GI50 (NCI-H23 lung) 22.5 µM | GI50 (NCI/ADR-RES ovarian) 33.3 µM | GI50 (UO-31 renal) 14.3 µM | GI50 (SF-295 CNS) 33.9 µM | GI50 (MOLT-4 leukemia) 25.1 µM | GI50 (MDA-MB-435) 23.9 µM | GI50 (DU-145 prostate) 25.9 µM | GI50 (UACC-62 melanoma) 19.9 µM | GI50 (HOP-62 NSCLC) 23.8 µM | GI50 (OVCAR-8 ovarian) 28.4 µM | GI50 (MDA-MB-231 breast) 42.1 µM | GI50 (CCRF-CEM leukemia) 18.5 µM | GI50 (PC-3 prostate) 25 µM | GI50 (BT-549 breast) 16.8 µM | GI50 (IGROV1 ovarian) 26.7 µM | GI50 (HCT-116 colon) 18 µM | GI50 (CAKI-1 renal) 29.4 µM | GI50 (SW-620 colon) 19.9 µM | GI50 (KM12 colon) 21.2 µM | GI50 (NCI-H460 lung) 19.8 µM | GI50 (UACC-257 melanoma) 21.6 µM | GI50 (HOP-92 NSCLC) 19 µM | GI50 (SNB-75 CNS) 31.9 µM | GI50 (COLO 205 colon) 19.3 µM | GI50 (A549 NSCLC) 38.4 µM | GI50 (NCI-H522 lung) 15.9 µM | GI50 (HL-60(TB) leukemia) 21.1 µM | GI50 (U251 CNS) 17.4 µM | GI50 (SF-268 CNS) 26.6 µM | GI50 (MALME-3M melanoma) 18 µM | GI50 (T-47D breast) 23.6 µM | GI50 (SF-539 CNS) 17.3 µM | GI50 (OVCAR-4 ovarian) 41.7 µM | GI50 (786-0 renal) 18.8 µM | GI50 (SNB-19 CNS) 30.2 µM | GI50 (SK-OV-3 ovarian) 59.6 µM | GI50 (RPMI-8226 leukemia) 12.8 µM | GI50 (OVCAR-3 ovarian) 18.1 µM | GI50 (SK-MEL-2 melanoma) 19.8 µM | GI50 (SK-MEL-28 melanoma) 24.8 µM | GI50 (OVCAR-5 ovarian) 32.9 µM | GI50 (SK-MEL-5 melanoma) 18.8 µM | GI50 (HT29 colon) 23.7 µM | GI50 (RXF 393 renal) 21.6 µM | GI50 (LOX IMVI melanoma) 14.4 µM | GI50 (SR leukemia) 16.1 µM | GI50 (HS 578T breast) 42.6 µM | GI50 (ACHN renal) 29.7 µM | GI50 (K-562 leukemia) 24 µM | GI50 (SN12C renal) 29.4 µM | GI50 (HCT-15 colon) 23.9 µM | GI50 (EKVX NSCLC) 27.5 µM | GI50 (NCI-H226 lung) 25.4 µM | GI50 (TK-10 renal) 25.6 µM
50.4 µM: TGI (SW-620 colon)
45 µM: TGI (HOP-92 NSCLC)
69.1 µM: TGI (SK-MEL-28 melanoma)
79.3 µM: TGI (T-47D breast)
28.6 µM: TGI (LOX IMVI melanoma)
62.9 µM: TGI (MDA-MB-435)
43 µM: TGI (SK-MEL-2 melanoma)
83.2 µM: TGI (IGROV1 ovarian)
45.5 µM: TGI (COLO 205 colon)
55 µM: TGI (UACC-257 melanoma)
52.3 µM: TGI (M14 melanoma)
31.8 µM: TGI (UO-31 renal)
37.3 µM: TGI (786-0 renal)
70.3 µM: TGI (HL-60(TB) leukemia)
64.8 µM: TGI (PC-3 prostate)
47.1 µM: TGI (KM12 colon)
93.4 µM: TGI (MOLT-4 leukemia)
64.3 µM: TGI (HT29 colon)
94.4 µM: TGI (SNB-19 CNS)
34.2 µM: TGI (HCT-116 colon) | TGI (OVCAR-3 ovarian)
69.2 µM: TGI (NCI-H23 lung)
50.8 µM: TGI (UACC-62 melanoma) | TGI (RPMI-8226 leukemia)
50.9 µM: TGI (MALME-3M melanoma) | TGI (TK-10 renal)
58.9 µM: TGI (NCI-H226 lung)
41.2 µM: TGI (SF-539 CNS)
> 100 µM: TGI (MCF7 breast) | TGI (NCI/ADR-RES ovarian) | TGI (SF-295 CNS) | TGI (OVCAR-8 ovarian) | TGI (MDA-MB-231 breast) | TGI (CAKI-1 renal) | TGI (SNB-75 CNS) | TGI (A549 NSCLC) | TGI (SF-268 CNS) | TGI (OVCAR-4 ovarian) | TGI (SK-OV-3 ovarian) | TGI (SR leukemia) | TGI (HS 578T breast) | TGI (ACHN renal) | TGI (K-562 leukemia) | TGI (SN12C renal) | TGI (HCT-15 colon) | TGI (EKVX NSCLC)
58.7 µM: TGI (HOP-62 NSCLC)
36 µM: TGI (NCI-H522 lung)
33.8 µM: TGI (BT-549 breast)
36.1 µM: TGI (SK-MEL-5 melanoma)
44 µM: TGI (NCI-H460 lung)
38.5 µM: TGI (U251 CNS)
